PMC6934184, “Selective DNA-PKcs inhibition extends the therapeutic index of localized radiotherapy and chemotherapy” (The Journal of Clinical Investigation, 2019)

Biological target: T1, SRC N1 (Homo sapiens, UniProt P12931)
T1 construct: purchased Thermo Fisher Scientific (Life Technologies) SelectScreen
Assay: SelectScreen Z'LYTE
Format: biochemical
How it was run: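 Percent values come from Thermo SelectScreen profiling of NU5455, combining activity and binding assays. CSF1R was run in Z'LYTE format at Km app ATP, and CAMK1 in Adapta format with ATP listed at 10.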

T1 sequence (P12931 1-542 isoform P12931-2): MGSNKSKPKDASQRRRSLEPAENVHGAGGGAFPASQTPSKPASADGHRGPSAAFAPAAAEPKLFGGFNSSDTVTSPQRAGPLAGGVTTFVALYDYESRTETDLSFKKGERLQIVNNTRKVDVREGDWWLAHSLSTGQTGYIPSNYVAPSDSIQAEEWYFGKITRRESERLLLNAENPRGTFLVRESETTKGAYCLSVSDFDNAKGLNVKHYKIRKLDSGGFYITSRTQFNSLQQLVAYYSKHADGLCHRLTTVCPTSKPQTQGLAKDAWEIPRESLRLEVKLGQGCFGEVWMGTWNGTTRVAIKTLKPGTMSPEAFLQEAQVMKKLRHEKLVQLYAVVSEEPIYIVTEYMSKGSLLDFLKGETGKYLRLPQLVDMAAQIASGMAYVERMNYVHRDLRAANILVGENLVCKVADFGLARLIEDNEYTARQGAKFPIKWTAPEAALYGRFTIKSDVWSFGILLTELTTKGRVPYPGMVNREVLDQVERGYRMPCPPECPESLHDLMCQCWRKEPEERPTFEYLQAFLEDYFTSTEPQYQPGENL

With `CN(C(=O)CN1CCOCC1)c1ccc2sc3c(-c4cccc5c(=O)cc(N6CC7CCC(C6)O7)oc45)cccc3c2c1` [NU5455] the inhibition at 1 µM was 3.9%.
